# Results as given in patent publication US4626525A, “Antibiotics, preparation and use of and intermediates therefor” (Bayer Aktiengesellschaft, priority 1983, dated 1986).
# Starred links: 1 amine or outer side, 2 acyl side, 3 side chain; linkers in the order of their positions; H or OH if unused. Non-standard residues stand in square brackets, D forms with d. Residues, ends and D or L forms follow the SMILES beside them. ξ: configuration not given here. X1 = Cn1c(=NC(N)=O)ccn(C2SC(C(O)C(N[*:1])C(=O)[*:2])C(O)C2O)c1=O; Orn(N5-OH,N5-Ac) = CC(=O)N(O)CCC[C@H](N)C(=O)O; ξT = CC(O)C(N)C(=O)O; ξA = CC(N)C(=O)O
# Experiments:
# Assay in all cases: Hole test, inhibiting areola diameter, DST agar
# Format in all cases: cell-based
# E. coli T 7 = test system: E. coli T 7; set-up: unit not given here; settings: medium DST agar
# Source text: (§1) Activity against the germs listed below is found in vitro, on the basis of the diameter of the inhibiting areola.
# E. coli 14 = test system: E. coli 14; set-up: unit not given here; settings: medium DST agar
# Source text: as §1
# Prot. 1017 = settings: 1000 μg/ml, medium DST agar
# Source text: as §1
# Staph. 133 = settings: 1000 μg/ml, medium DST agar
# Source text: as §1
Compound,Inhibiting areola diameter E. coli T 7 (E. coli T 7; 10 μg/ml),Inhibiting areola diameter E. coli T 7 (E. coli T 7; 100 μg/ml),Inhibiting areola diameter E. coli 14 (E. coli 14; 10 μg/ml),Inhibiting areola diameter E. coli 14 (E. coli 14; 100 μg/ml),Inhibiting areola diameter E. coli T 7 (E. coli T 7; 1000 μg/ml),Inhibiting areola diameter E. coli 14 (E. coli 14; 1000 μg/ml),Inhibiting areola diameter Prot. 1017 (Prot. 1017),Inhibiting areola diameter Staph. 133 (Staph. 133)
"CC(=O)N(O)CCC[C@H](NC(=O)[C@H](CCCN(O)C(C)=O)NC(=O)[C@@H](N)CCCN(O)C(C)=O)C(=O)NC(C)C(=O)NC(C(=O)O)C(O)C1SC(n2ccc(=NC(N)=O)n(C)c2=O)C(O)C1O (some centres unmarked) [Compound 9] (H-[Orn(N5-OH,N5-Ac)][Orn(N5-OH,N5-Ac)][Orn(N5-OH,N5-Ac)][ξA][X1]-OH)",28,34,30,34,,,,
CC(=O)N(O)CCC[C@H](N)C(=O)NC(C(=O)O)C(O)C1SC(n2ccc(=NC(N)=O)n(C)c2=O)C(O)C1O (some centres unmarked) [Compound 11],13,18,18,13,,,,
CC(=O)N(O)CCC[C@H](NC(=O)[C@H](CCCN(O)C(C)=O)NC(=O)[C@@H](N)CCCN(O)C(C)=O)C(=O)NC(C(=O)O)C(O)C1SC(n2ccc(=NC(N)=O)n(C)c2=O)C(O)C1O (some centres unmarked) [Compound 13],,,,,19,20,20,
"CC(=O)N(O)CCC[C@H](NC(=O)[C@H](CCCN(O)C(C)=O)NC(=O)[C@@H](N)CCCN(O)C(C)=O)C(=O)NC(C(=O)NC(C(=O)O)C(O)C1SC(n2ccc(=NC(N)=O)n(C)c2=O)C(O)C1O)C(C)O (some centres unmarked) [Compound 20] (H-[Orn(N5-OH,N5-Ac)][Orn(N5-OH,N5-Ac)][Orn(N5-OH,N5-Ac)][ξT][X1]-OH)",,14,,13,15,14,17,25
CC(=O)N(O)CCC[C@H](NC(=O)[C@H](CCCN(O)C(C)=O)NC(=O)[C@@H](N)CCCN(O)C(C)=O)C(=O)NC(C(=O)O)C(O)C1SC(n2ccc(=O)n(C)c2=O)C(O)C1O (some centres unmarked) [Compound 24],,18,,,,18,18,
